Molecules are shown by their SMILES.

The values below come from article PMC7140498, “Predicting liver cytosol stability of small molecules” (Journal of Cheminformatics, 2020).

Assay in one series: not given
The following applies: human, cytosol.
As for `O=C(c1ccc(-c2ncc3cnc(-c4cccc(F)c4)cn23)cc1)N1CCc2cccnc21`, the “t1/2 [min] (Left)” value came to 17.3 min. Take `O=c1cc(N2CCOCC2)oc2c(-c3cccc(F)c3)nccc12` [O=c1cc(N2CCOCC2)oc2c(-c3cccc(F)c3)nccc12]: the “t1/2 [min] (Left)” value was > 120 min.

The next series can be described thus: Metabolic stability assay (substrate depletion) in human liver cytosol fractions. The following applies: both, human, cytosol, pH 7.4, t1/2 (mean ± SD) (Human cytosol), control compounds, 17 plates, 1 μM, 2 mg/mL cytosol, pH 7.4, 37 °C.
Procedure: (§1) Our assay (384-well format) consisted of two parts; a robotic system for incubation and sample clean up and an integrated LC/MS method to calculate the percent remaining of parent compound. Briefly, each reaction mixture (110 μL) consisted of a test compound (1 μM) and either human or mouse cytosol fractions (2 mg/mL) in phosphate buffer (100 mM) at pH 7.4. Samples were incubated in 384-well plates at 37 °C for 0, 5, 10, 15, 30 and 60 min. Sample analysis and t1/2 calculations were performed using a previously described method [15]. […] A set of control compounds for low and high cytosolic stability were routinely run in each plate.
The term half-life denotes how long it takes for the measured level to halve. On to `Cc1cc(=O)n(-c2ccccc2)n1C` [Antipyrine, reference compound], for which the half-life at 1 μM is > 2 h.

The series is the same for the next values; noted with them: both, human, cytosol, pH 7.4, t1/2 [min] (Right), external validation, sheet Human, right compound.
Consider `CN1CCN(C(=O)Cc2cccn2-c2ccc(F)cc2)CC1` [CN1CCN(C(=O)Cc2cccn2-c2ccc(F)cc2)CC1], for which the half-life at 1 μM was > 2 h.

The series is the same for the next values; noted with them: both, human, cytosol, pH 7.4, t1/2 category (Human cytosol), control compounds, 17 plates.
Consider `Cc1cc(=O)n(-c2ccccc2)n1C` [Antipyrine, reference compound], for which the half-life at 1 μM is > 0.5 h.

The series is the same for the next values; noted with them: both, human, liver cytosol fractions, pH 7.4, t1/2 [min] (Left), external validation, sheet Human, left compound.
`CC(C)(C)c1coc([C@@H]2COCCN2Cc2cccc(C#N)c2)n1` gave a half-life at 1 μM of 0.943 h. The same measure, in the same setting: to `N#Cc1ccc(CN2CC(Oc3ccc(F)cc3F)C2)cc1` [N#Cc1ccc(CN2CC(Oc3ccc(F)cc3F)C2)cc1] belongs 1.05 h; to `CC(=O)N1CCC(Cc2ccc(C(=O)NC3CC3)cc2)CC1` [CC(=O)N1CCC(Cc2ccc(C(=O)NC3CC3)cc2)CC1], 1.33 h.

The series is the same for the next values; noted with them: both, human, liver cytosol fractions, pH 7.4, t1/2 [min] (Right), external validation, sheet Human, right compound.
With `CN(Cc1ccccc1)C1CCOc2ccccc21` (stereo not drawn) [CN(Cc1ccccc1)C1CCOc2ccccc21], the half-life at 1 μM stood at 0.127 h.

In turn, `COc1cccc(-c2cn3c(n2)N(C(=O)c2ccco2)CCC3)c1` yielded a half-life at 1 μM of 0.993 h. This half-life at 1 μM lies about 7.8-fold higher than the previous one. The same measure, in the same setting: to `COc1cccc(-c2c(C(=O)N3CCOCC3)nc3sccn23)c1` [COc1cccc(-c2c(C(=O)N3CCOCC3)nc3sccn23)c1] belongs > 2 h. Same read-out and setting: under `Cc1nn2c(c1-c1ccccc1Oc1ccccc1)N(Cc1ccc(C(=O)O)cc1)CCC2` stands > 2 h; under `Cc1noc(-c2cn(C3CCN(C(=O)c4ccccc4)C3)nn2)n1` (stereo not drawn), > 2 h. The same measure, in the same setting: under `COc1cccc(CN2CCC3(CC2)OCCN(C)C3=O)c1` [COc1cccc(CN2CCC3(CC2)OCCN(C)C3=O)c1] stands > 2 h. For `CN(CC1CCOC1)C(=O)Nc1ccccc1` (stereo not drawn) [CN(CC1CCOC1)C(=O)Nc1ccccc1], the half-life at 1 μM was > 2 h. Still for that read-out and setting: to `COCCNC(=O)c1nc2sccn2c1-c1cccc(OC)c1` [COCCNC(=O)c1nc2sccn2c1-c1cccc(OC)c1] belongs > 2 h.

Take `O=C(O)c1ccc(CN2CCOC[C@H]2c2nc(-c3ccc(F)cc3)c[nH]2)cc1`: the half-life at 1 μM was > 2 h.

The compound `COc1ccc(CN2CC(Oc3ccc(F)c(C)c3)C2)cc1` [COc1ccc(CN2CC(Oc3ccc(F)c(C)c3)C2)cc1] returned a half-life at 1 μM of 0.36 h. The same measure, in the same setting: under `COc1ccc(CN2CCC3(C2)NC(=O)c2ccccc2O3)cc1` (stereo not drawn) [COc1ccc(CN2CCC3(C2)NC(=O)c2ccccc2O3)cc1] stands > 2 h.

The same series, now with this note: both, human, liver cytosol fractions, pH 7.4, t1/2 [min] (left), in-house library pair, human transforms, left compound.
`CC(C)(C)c1coc([C@@H]2COCCN2Cc2cccc(C#N)c2)n1`: the half-life at 1 μM is 0.943 h. In turn, `N#Cc1ccc(CN2CC(Oc3ccc(F)cc3F)C2)cc1` [N#Cc1ccc(CN2CC(Oc3ccc(F)cc3F)C2)cc1] had a half-life at 1 μM of 1.05 h.

Compound `CC(=O)N1CCC(Cc2ccc(C(=O)NC3CC3)cc2)CC1` [CC(=O)N1CCC(Cc2ccc(C(=O)NC3CC3)cc2)CC1] had a half-life at 1 μM of 1.33 h.

Staying with this series, now noted: external validation, sheet Human, left compound.
`N#Cc1cccc(-c2c(C(=O)NC3CC3)nc3sccn23)c1` [N#Cc1cccc(-c2c(C(=O)NC3CC3)nc3sccn23)c1]: the “t1/2 [min] (Left)” value is recorded as 95.2 min.

Regarding `Cc1noc(C)c1-c1cc(-c2cccc(F)c2)cn2cncc12` [Cc1noc(C)c1-c1cc(-c2cccc(F)c2)cn2cncc12], the “t1/2 [min] (Left)” value worked out at 90 min. Consider `N#Cc1ccc(CN2CCC(N3CCNC3=O)CC2)cc1` [N#Cc1ccc(CN2CCC(N3CCNC3=O)CC2)cc1], for which the “t1/2 [min] (Left)” value is 93.2 min.

Assay in another series: not given
More on the design: method as in PMID 21385103. The conditions noted are these: clinical trials terminated; cited from earlier work.
Regarding `CC(C)n1nc(-c2cnc(N)nc2-c2ccccc2)ccc1=O` [FK3453], the “levels of parent compound in human plasma” value is recorded as “abnormally low levels”.

A short description of the next series: Metabolic stability assay (substrate depletion) in mouse liver cytosol fractions. The following applies: external validation, sheet Mouse, left compound.
Procedure: as §1
As for `CN1c2cc(C(=O)Nc3ccc(Cl)cc3)ccc2C(=O)N2CCCCC21` (stereo not drawn), the “t1/2 [min] (Left)” value was determined as 83.39 min. The same measure, in the same setting: under `CN(Cc1cccnc1)c1nc2c(c(=O)[nH]1)CCN(Cc1ccc(Cl)cc1)CC2` stands 74.11 min; under `CCOc1cc(=O)n2c(c1C(=O)Nc1ccc(Cl)cc1)CCCC2`, 94.08 min.

With `CCN1c2cc(C(=O)Nc3ccc(Cl)cc3)ccc2C(=O)N2CCCCCC21` (stereo not drawn), the “t1/2 [min] (Left)” value was 56.1 min. Same read-out and setting: to `O=C1[C@H]2CN(Cc3ccc(Cl)cc3)C[C@H]2C(=O)N1Cc1ccc2c(c1)OCO2` belongs 66.66 min; to `OCC1(CN2CCCC2)CCN(Cc2ccc(Cl)cc2)CC1` [OCC1(CN2CCCC2)CCN(Cc2ccc(Cl)cc2)CC1], 54.48 min; to `FC(F)(F)c1ccc2nc([C@H]3CCN(Cc4ccc(Cl)cc4)C3)[nH]c2c1`, 56.67 min.

Consider `CN(C)c1nc2c(c(=O)[nH]1)CCN(Cc1ccc(Cl)cc1)CC2`, for which the “t1/2 [min] (Left)” value is listed as 114.48 min. Same read-out and setting: under `O=C1[C@H]2CN(Cc3ccc(Cl)cc3)C[C@H]2C(=O)N1CCc1ccccc1` stands 47.51 min; under `Cc1cccc(-c2noc([C@@H]3C[C@@H](O)CN3Cc3ccc(Cl)cc3)n2)c1`, 23.64 min. As for `CCN1c2cc(C(=O)Nc3ccc(Cl)cc3)ccc2C(=O)N2CCCCC21` (stereo not drawn), the “t1/2 [min] (Left)” value came to 25.75 min. Regarding `Cc1noc(-c2nc(-c3ccc(Cl)cc3)no2)n1` [Cc1noc(-c2nc(-c3ccc(Cl)cc3)no2)n1], the “t1/2 [min] (Left)” value came out at 15.6 min.

With `CN1c2cc(C(=O)Nc3ccc(Cl)cc3)ccc2C(=O)N2CCCCCC21` (stereo not drawn), the “t1/2 [min] (Left)” value turned out to be 63.37 min. Still for that read-out and setting: to `CN1C(=O)CO[C@H]2CN(Cc3ccc(Cl)cc3)C[C@H]21` belongs 116.11 min.

With `O=C(Nc1ccc(-c2nnc3n2CCCC3)cc1)c1ccc(Cl)cc1`, the “t1/2 [min] (Left)” value stood at 117.12 min. With `COc1ccc(CN2C[C@H]3CN(Cc4ccc(Cl)cc4)CCN3C2=O)cc1`, the “t1/2 [min] (Left)” value was found to be 82.24 min. The same measure, in the same setting: under `O=C(Nc1cccc(-c2nnc3n2CCCC3)c1)c1ccc(Cl)cc1` stands 56.47 min.

The same series, now with this note: male, CD-1, mouse, cytosol, pH 7.4, t1/2 (mean ± SD) (Mouse cytosol), control compounds, 17 plates, 1 μM, 2 mg/mL cytosol, pH 7.4, 37 °C.
As to `Cc1cc(=O)n(-c2ccccc2)n1C` [Antipyrine, reference compound], the half-life at 1 μM is > 2 h.

Staying with this series, now noted: male, CD-1, mouse, cytosol, pH 7.4, t1/2 category (Mouse cytosol), control compounds, 17 plates.
On to `Cc1cc(=O)n(-c2ccccc2)n1C` [Antipyrine, reference compound], for which the half-life at 1 μM was > 0.5 h.

The same series, now with this note: male, CD-1, mouse, liver cytosol fractions, pH 7.4, t1/2 [min] (Right), external validation, sheet Mouse, right compound.
`O=C1NC2(CCN(C(=O)c3ccc(Cl)c(F)c3)CC2)CC1c1ccccc1` (stereo not drawn) had a half-life at 1 μM of 1.43 h. With `O=c1[nH]c(N2CCOCC2)nc2c1CCN(Cc1ccc(Cl)c(F)c1)CC2`, the half-life at 1 μM turned out to be 1.54 h. Still for that read-out and setting: to `CN1CCN(c2nc3c(c(=O)[nH]2)CCN(Cc2ccc(Cl)c(F)c2)CC3)CC1` belongs > 2 h; to `CCOc1cc(=O)n2c(c1C(=O)Nc1ccc(Cl)c(F)c1)CCCC2`, 1.34 h. Turning to `CN1c2cc(C(=O)Nc3ccc(Cl)c(F)c3)ccc2C(=O)N2CCCCC21` (stereo not drawn), the half-life at 1 μM turned out to be 0.524 h. Compared with the last compound, the half-life at 1 μM is about 2.6-fold lower. The same measure, in the same setting: under `O=C1[C@H]2CN(Cc3ccc(Cl)c(F)c3)C[C@H]2C(=O)N1CCc1ccccc1` stands 0.621 h; under `COCC1CN(C(C)=O)CC12CCN(Cc1ccc(Cl)c(F)c1)CC2` (stereo not drawn), 1.36 h; under `CN(C)c1nc2c(c(=O)[nH]1)CCN(Cc1ccc(Cl)c(F)c1)CC2`, > 2 h. On to `CN1c2cc(C(=O)Nc3ccc(Cl)c(F)c3)ccc2C(=O)N2CCCCCC21` (stereo not drawn), for which the half-life at 1 μM amounted to 0.383 h. Still for that read-out and setting: to `CCN1c2cc(C(=O)Nc3ccc(Cl)c(F)c3)ccc2C(=O)N2CCCCCC21` (stereo not drawn) belongs 0.904 h. Same read-out and setting: to `O=C1[C@H]2CN(Cc3ccc(Cl)c(F)c3)C[C@H]2C(=O)N1Cc1ccc2c(c1)OCO2` belongs 0.921 h; to `CN(C1CCOCC1)C1CCN(C(=O)c2cc[nH]n2)CC1` [CN(C1CCOCC1)C1CCN(C(=O)c2cc[nH]n2)CC1], > 2 h. Still for that read-out and setting: under `OCC1(CN2CCCC2)CCN(Cc2ccc(Cl)c(F)c2)CC1` [OCC1(CN2CCCC2)CCN(Cc2ccc(Cl)c(F)c2)CC1] stands 1.21 h; under `CCN1c2cc(C(=O)Nc3ccc(Cl)c(F)c3)ccc2C(=O)N2CCCCC21` (stereo not drawn), 0.412 h; under `O=C1OCC2(CCN(Cc3cc[nH]n3)C2)N1CCN1CCOCC1` (stereo not drawn) [O=C1OCC2(CCN(Cc3cc[nH]n3)C2)N1CCN1CCOCC1], > 2 h. On to `COc1cccc(C(=O)NCC2CCCN(Cc3cc[nH]n3)C2)c1OC` (stereo not drawn), for which the half-life at 1 μM is > 2 h. The same measure, in the same setting: under `O=C(Nc1cccc(-c2nnc3n2CCCC3)c1)c1cc[nH]n1` [O=C(Nc1cccc(-c2nnc3n2CCCC3)c1)c1cc[nH]n1] stands > 2 h. The same measure, in the same setting: under `COc1cc(=O)n2c(c1C(=O)Nc1ccc(Cl)c(F)c1)CCCC2` stands 1.47 h. On to `COCC1CN(Cc2ccc(Cl)c(F)c2)CC12CCNCC2` (stereo not drawn) [COCC1CN(Cc2ccc(Cl)c(F)c2)CC12CCNCC2], for which the half-life at 1 μM was > 2 h.

Turning to `O=C(Nc1ccc(-c2nnc3n2CCCC3)cc1)c1cc[nH]n1` [O=C(Nc1ccc(-c2nnc3n2CCCC3)cc1)c1cc[nH]n1], the half-life at 1 μM was > 2 h.

Assay in a further series: not given
More on the design: method as in PMID 20421447. The following applies: development discontinued in 2008; cited from earlier work.
With `Cn1cc(-c2ccc3nnc(Sc4ccc5ncccc5c4)n3n2)cn1` [SGX523], the “toxicity reported in development” value is reported as “dose-limiting renal toxicity”.
